How the values were obtained:
rats = tested on: rats; set-up: method as in PMID 8773425; settings: oral, before implantation on day 2 of pregnancy; cited from earlier work
CD-1 mice = experiment: Subchronic and reproductive toxicity tests; settings: mouse, in vivo
Procedure: Immature CD-1 mice (20 days old) were obtained from Experimental Animal Tech Co. of Weitonglihua (Beijing, China) and acclimatized in an experimental environment with a temperature of 22 °C±2 °C, relative humidity between 40 and 60%, and artificial lighting in a 12 h/12 h light-dark cycle. The animals were fed ad libitum with a basic diet from the Laboratory Animal Center of the Academy of Military Medical Sciences (Beijing, China), and drinking water was provided ad libitum. […] The animals were housed five to a cage until the pairing date. The treatment via oral gavage of each mouse was performed once every 3 days beginning on PND 24. The chemicals were dissolved in peanut oil to the appropriate concentrations. The volume of vehicle or chemical solutions administered was adjusted daily based on body weight measured during the dosing period according to the volume-body weight ratio of 5 ml kg^−1 bw. On PND 60, 10 females of each group were weighed and killed by cervical dislocation. The uteri, ovaries, livers, kidneys and spleens were weighed and collected for histological analysis. At the age of PND 77, males and females were paired. Each morning, the females were examined for the presence of vaginal plugs. Gestational day 1 was defined as the day on which a vaginal plug was found. In cases where pairing was unsuccessful, females were re-mated with proven males of the same group, except that females in the 1.2 mg kg^−1 TAM group were re-mated with proven males of the control group. After a 7-day mating period, the males were weighed and killed, and organs were weighed and collected for further analysis. Cauda epididymal sperm was collected from each mouse and observed under a trinocular microscope (Olympus BX53) in physiological saline. A microscopic video was recorded and analysed for sperm quality evaluation. The treatment via oral gavage was continued for the females until day 19 of pregnancy. On post-partum days 0 and 4, the weights of the dams and pups were recorded and the pups were checked for abnormalities. On post-partum day 4, the dams were weighed and killed, and their organs were weighed and collected for further analysis. The ovaries and uteri were examined for the numbers of corpora lutea and implantation sites, respectively. Finally, the non-pregnant and nulliparous females were killed for histopathological analysis. For histological examination, organs and tissues were fixed in formalin fixation, embedded in paraffin, and sectioned serially at 5 μm. Slides were stained with hematoxylin and eosin (H&E), and observed under a light microscope (Olympus BX53).

rats and mice = tested on: rats and mice; set-up: method as in PMID 21438738, PMID 12075117, PMID 18445619; settings: cited from earlier work
[1] = tested on: intact female BALB/c mice; set-up: method as in PMID 9359486; settings: 28 days of oral administration, intact female BALB/c mice ∼50 days old; cited from earlier work
female CD-1 mice [2] = experiment: Improved anti-uterotrophic assay, daily oral gavage for 10 days beginning on PND 24; format: in vivo; settings: daily oral gavage for 10 days
Procedure: The animals were fed ad libitum with a basic diet from the Laboratory Animal Center of the Academy of Military Medical Sciences (Beijing, China), and drinking water was provided ad libitum. […] The volume of vehicle or chemical solutions administered was adjusted daily based on body weight measured during the dosing period according to the volume-body weight ratio of 5 ml kg^−1 bw.

female CD-1 mice [3] = experiment: Exposure experiment through drinking water; format: in vivo; settings: 10-day exposure via drinking water
Procedure: Mice with a maximal difference in body weight of 1 g were selected for the experiments and randomly assigned to either the treatment or control groups. […] The animals were fed ad libitum an oestrogen-free diet from Trophic Animal Feed High-tech Co., Ltd. (Nantong, China), and drinking water was provided ad libitum in glass bottles. Before the experiments, the mice were randomly assigned to five groups (n=8). Ultra-pure water was used as a control. FULV was dissolved in ultra-pure water to a concentration of 100 ng l^−1 and used as a positive control. […] Two plastic drinking bottles labelled ‘BPA-free', of different brands, were purchased and denoted Bottle A and Bottle B. The plastic bottles were filled with boiling ultra-pure water from a stainless steel electric water heater and allowed to cool down to room temperature before the animal experiment. The BHPF levels in the cooled boiled waters from Bottle A, Bottle B and the stainless steel electric water heater were determined by GC–MS. No BHPF was detected in the cooled boiled water from the stainless steel electric water heater. The cooled boiled waters from Bottle A and Bottle B were transferred to glass bottles during the experiment. The exposure experiment was performed for 10 days beginning on PND 24. After the period of exposure, the mice were weighed and killed in turns for each group, whereby in each turn only one mouse in a group was killed. Blood was collected by cardiac puncture soon after each animal was killed, and the uteri were removed, blotted and weighed by one experimenter to reduce the risk of bias in the data collection and immediately frozen in liquid nitrogen for gene expression analysis. The relative uterine weight was calculated to evaluate the anti-uterotrophic activity. […] The serum BHPF levels were analysed by GC–MS using the same method as that for human serum. The gene expressions of sprr2a and sprr2b in the uteri were determined by Q-RT-PCR.

oestrogen receptor α = tested on: oestrogen receptor α; set-up: method as in PMID 22927406; settings: in the presence of E2; cited from earlier work

CN(C)CCOc1ccc([C@H]2C[C@]3(C)[C@@H](O)CC[C@H]3[C@@H]3CCc4cc(O)ccc4[C@H]32)cc1 [RU39411]
reproductive effects, high doses (rats): prevented pregnancy in all animals | reproductive effects, low doses (rats): reduced the litter sizes and weights and induced embryonic absorption in some animals

CC/C(=C(\c1ccccc1)c1ccc(OCCN(C)C)cc1)c1ccccc1 [TAM, tamoxifen, reference compound]
analysis of ovary sections (CD-1 mice): retarded follicular development and reduced the numbers of corpora lutea | histopathological examination of ovaries (CD-1 mice): haemorrhagic ovary cysts occurred | histopathological examination of uteri (CD-1 mice): serious atrophic endometria | sperm quality (CD-1 mice): No obvious adverse effects | reproductive effects, high doses (rats): prevented pregnancy in all animals | reproductive effects, low doses (rats): reduced the litter sizes and weights and induced embryonic absorption in some animals

CC(C)(c1ccc(O)cc1)c1ccc(O)cc1 [BPA, bisphenol A]
reproductive/developmental NOAEL (rats and mice): 50 mg kg^−1 bw day^−1 | systemic no-observed-adverse-effect level (NOAEL) (rats and mice): 5 mg kg^−1 bw day^−1

CC1=C(c2ccc(OC(=O)C(C)(C)C)cc2)[C@H](c2ccc(OCCN3CCCCC3)cc2)Oc2cc(OC(=O)C(C)(C)C)ccc21 [EM-800]
effect on uterus [1]: reduce uterine weights and cause atrophy of the endometrium

C[C@]12CC[C@@H]3c4ccc(O)cc4C[C@@H](CCCCCCCCC[S+]([O-])CCCC(F)(F)C(F)(F)F)[C@H]3[C@@H]1CC[C@@H]2O (stereo partly shown) [FULV, fulvestrant]
relative uterine weights (female CD-1 mice [2]): decreased in a dose-dependent manner | relative uterine weight, % that of the control (female CD-1 mice [3]; 100 ng l^−1 BHPF or FULV, Bottle A 124.35, Bottle B 23.81 ng l^−1 BHPF, P>0.05): 77.89%±37.50 | expression of sprr2a in the uteri (Q-RT-PCR) (female CD-1 mice [3]; no statistically significant difference (P>0.05)): decreased | expression of sprr2b in the uteri (Q-RT-PCR) (female CD-1 mice [3]; vs control): significantly lower

Cc1cc(C(C)(C)c2ccc(O)c(C)c2)ccc1O [BPC, bisphenol C]
antagonistic activity (oestrogen receptor α): almost full antagonistic activity

Reference: article PMC5339874, “Fluorene-9-bisphenol is anti-oestrogenic and may cause adverse pregnancy outcomes in mice” (Nature Communications, 2017)
